Assay [1] has as its system JAK1-dependent STAT6 phosphorylation downstream of IL-13 stimulation in BEAS-2B human bronchial epithelial cells. Description: JAK1 pathway assay in BEAS-2B cells (IL-13-pSTAT6, MSD). It counts as cell-based. The following applies: BEAS-2B cells, IL-13 stimulation, read-out: IL-13 p-STAT6 BEAS-2B IC50.
Assay [2] deals with isolated recombinant JAK2 kinase domain (Homo sapiens (Human), UniProt O60674). Description: JAK2 enzyme assay (Caliper LabChip, Ki). It counts as biochemical. An outline of the steps: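 Caliper LabChip readout of phosphorylated product as a fraction of total substrate, a fluorescently N-terminally labelled JAK3-derived peptide. Isolated human JAK kinase domains were incubated 30 min at 22 °C before EDTA quench (50 mM final).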
isolated recombinant JAK2 kinase domain, sequence (O60674 849-1124): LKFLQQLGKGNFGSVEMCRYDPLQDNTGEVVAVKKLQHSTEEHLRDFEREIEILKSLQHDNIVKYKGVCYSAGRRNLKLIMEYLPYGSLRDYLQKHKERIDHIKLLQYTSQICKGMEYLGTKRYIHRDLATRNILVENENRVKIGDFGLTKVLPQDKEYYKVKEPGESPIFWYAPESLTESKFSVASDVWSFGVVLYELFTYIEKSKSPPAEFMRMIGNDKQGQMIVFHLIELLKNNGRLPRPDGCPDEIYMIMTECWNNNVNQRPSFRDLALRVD

Assay [3] addresses isolated recombinant JAK1 kinase domain (Homo sapiens (Human), UniProt P23458). Description: JAK1 enzyme assay (Caliper LabChip, Ki). It counts as biochemical. Particulars: read-out: JAK1 Ki. An outline of the steps:
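Ki derived via Morrison tight-binding model, ATP-competitive correction applied. Read-out: product/total ratio of a 5-carboxyfluorescein-tagged JAK3 peptide separated on Caliper LabChip after phosphorylation by isolated human JAK1 kinase domain (22 °C, 30 min; EDTA quench, 50 mM final).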

Broadly, the IC50 is the midpoint of a concentration-inhibition curve. For orientation: Ki means a dissociation constant, usually derived from enzyme kinetics or from competition with a known ligand.

Molecules are shown by their SMILES. Like-named read-outs stand apart in the source and are kept apart here.

isolated recombinant JAK1 kinase domain, sequence (P23458 875-1153): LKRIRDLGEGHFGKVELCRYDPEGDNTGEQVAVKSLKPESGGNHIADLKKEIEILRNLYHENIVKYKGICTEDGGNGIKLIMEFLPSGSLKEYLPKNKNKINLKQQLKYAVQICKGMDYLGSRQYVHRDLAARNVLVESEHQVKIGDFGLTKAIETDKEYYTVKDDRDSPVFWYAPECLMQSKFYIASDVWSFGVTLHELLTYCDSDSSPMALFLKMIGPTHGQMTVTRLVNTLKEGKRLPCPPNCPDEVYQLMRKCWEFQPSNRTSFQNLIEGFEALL

In the case of `N#CCC1(n2cc(C(N)=O)c(NC(=O)C3CC3)n2)CCC(N2CC(F)(c3ccccc3)C2)CC1` (stereo not drawn) [Example 205, 1-[1-(cyanomethyl)-4-(3-fluoro-3-phenyl-azetidin-1-yl)cyclohexyl]-3-(cyclopropanecarbonylamino) pyrazole-4-carboxamide], the IC50 in assay [1] (Homo sapiens, BEAS-2B) came out at 82 nM. Also, the Ki was determined as 5.9 nM in assay [2] and 0.89 nM in assay [3].
Taken in the same sequence, the figures for `COC(=O)Nc1nn(C2(CC#N)CCN(Cc3cc(O)c(-c4ccccc4)cc3F)CC2)cc1C(N)=O` [Example 206, methyl N-[4-carbamoyl-1-[4-(cyanomethyl)-1-[(2-fluoro-5-hydroxy-4-phenyl-phenyl)methyl]-4-piperidyl]pyrazol-3-yl]carbamate] were 33 nM, 0.3 nM and 0.18 nM.
Taken in the same sequence, the figures for `N#CCC1(n2cc(C(N)=O)c(NC(=O)C3CC3)n2)CCN(Cc2cc(O)c(-c3ccccc3)cc2F)CC1F` (stereo not drawn) [Example 207, 1-[4-(cyanomethyl)-3-fluoro-1-[(2-fluoro-5-hydroxy-4-phenyl-phenyl)methyl]-4-piperidyl]-3-(cyclopropanecarbonylamino) pyrazole-4-carboxamide] were 29 nM, 0.13 nM and 0.11 nM.
Taken in the same sequence, the figures for `COC(=O)Nc1nn(C2(CC#N)CCN(Cc3cc(O)c(-c4ccccc4)cc3F)CC2F)cc1C(N)=O` (stereo not drawn) [Example 208, methyl N-[4-carbamoyl-1-[4-(cyanomethyl)-3-fluoro-1-[(2-fluoro-5-hydroxy-4-phenyl-phenyl)methyl]-4-piperidyl]pyrazol-3-yl]carbamate] were 28 nM, 0.21 nM and 0.17 nM.
Regarding `N#CCC1(n2cc(C(N)=O)c(NC(=O)OC3CC3)n2)CCN(Cc2ccc(-c3ccccc3)c(O)c2)CC1` [Example 209, cyclopropyl N-[4-carbamoyl-1-[4-(cyanomethyl)-1-[(3-hydroxy-4-phenyl-phenyl)methyl]-4-piperidyl]pyrazol-3-yl]carbamate], the 50% inhibitory concentration (IC50) in assay [1] (Homo sapiens, BEAS-2B) was 98 nM. For the same compound, the inhibition constant (Ki) in assay [2] turned out to be 3.8 nM; in assay [3] it was 0.49 nM.
Taken in the same sequence, the figures for `CCc1ccc(-c2ccc(CN3CCC(CC#N)(n4cc(C(N)=O)c(NC(=O)C5CC5)n4)C(F)C3)cc2O)cc1` (stereo not drawn) [Example 212, 1-[4-(cyanomethyl)-1-[[4-(4-ethylphenyl)-3-hydroxy-phenyl]methyl]-3-fluoro-4-piperidyl]-3-(cyclopropanecarbonylamino) pyrazole-4-carboxamide] were 27 nM, 0.3 nM and 0.22 nM.
In the same order, the values of `Cc1c(CN2CCC(CC#N)(n3cc(C(N)=O)c(NC(=O)C4CC4)n3)C(F)C2)ccc(-c2ccccc2)c1O` (stereo not drawn) [Example 213, 1-[4-(cyanomethyl)-3-fluoro-1-[(3-hydroxy-2-methyl-4-phenyl-phenyl)methyl]-4-piperidyl]-3-(cyclopropanecarbonylamino) pyrazole-4-carboxamide] are 22 nM, 0.28 nM and 0.37 nM.
In the same order, the values of `N#CCC1(n2cc(C(N)=O)c(NC(=O)C3CC3)n2)CCN(Cc2ccc(-c3ccoc3)cc2)CC1F` (stereo not drawn) [Example 214, 1-[4-(cyanomethyl)-3-fluoro-1-[[4-(3-furyl)phenyl]methyl]-4-piperidyl]-3-(cyclopropanecarbonylamino) pyrazole-4-carboxamide] are 42 nM, 0.62 nM and 0.31 nM.
For `N#CCC1(n2cc(C(N)=O)c(NC(=O)C3CC3)n2)CCN(Cc2ccc(-c3ccco3)cc2)CC1F` (stereo not drawn) [Example 215, 1-[4-(cyanomethyl)-3-fluoro-1-[[4-(2-furyl)phenyl]methyl]-4-piperidyl]-3-(cyclopropanecarbonylamino) pyrazole-4-carboxamide], the IC50 in assay [1] (Homo sapiens, BEAS-2B) is 12 nM. Besides, the Ki was determined as 0.25 nM in assay [2] and 0.24 nM in assay [3].
In the same order, the values of `CCn1ccc(-c2ccc(CN3CCC(CC#N)(n4cc(C(N)=O)c(NC(=O)OC)n4)C(F)C3)cc2)n1` (stereo not drawn) [Example 216, methyl N-[4-carbamoyl-1-[4-(cyanomethyl)-1-[[4-(1-ethylpyrazol-3-yl)phenyl]methyl]-3-fluoro-4-piperidyl]pyrazol-3-yl]carbamate] are 40 nM, 0.7 nM and 0.74 nM.
Taken in the same sequence, the figures for `CCn1ccc(-c2ccc(CN3CCC(CC#N)(n4cc(C(N)=O)c(NC(=O)C5CC5)n4)C(F)C3)cc2)n1` (stereo not drawn) [Example 217, 1-[4-(cyanomethyl)-1-[[4-(1-ethylpyrazol-3-yl)phenyl]methyl]-3-fluoro-4-piperidyl]-3-(cyclopropanecarbonylamino) pyrazole-4-carboxamide] were 56 nM, 0.49 nM and 0.66 nM.
For the compound `N#CCC1(n2cc(C(N)=O)c(NC(=O)C3CC3C#N)n2)CCN(Cc2ccc(-c3ccccc3)cc2F)CC1F` (stereo not drawn) [Example 218, 3-[(2-cyanocyclopropanecarbonyl)amino]-1-[4-(cyanomethyl)-3-fluoro-1-[(2-fluoro-4-phenyl-phenyl)methyl]-4-piperidyl]pyrazole-4-carboxamide], in assay [1], the half-inhibitory concentration (IC50) is 28 nM. Besides, the inhibition constant Ki in assay [2] stood at 0.59 nM; in assay [3], 0.35 nM.
Turning to `N#CCC1(n2cc(C(N)=O)c(NC(=O)C3CC3C#N)n2)CCN(Cc2ccc(-c3ccccc3)cc2F)CC1F` (stereo not drawn) [Example 219, 3-[(2-cyanocyclopropanecarbonyl)amino]-1-[4-(cyanomethyl)-3-fluoro-1-[(2-fluoro-4-phenyl-phenyl)methyl]-4-piperidyl]pyrazole-4-carboxamide], the IC50 in assay [1] was 68 nM. In addition, the Ki in assay [2] is 3.6 nM; in assay [3], 1.7 nM.
`COC(=O)Nc1nn(C2(CC#N)CCN(Cc3ccc(-c4ccco4)cc3)CC2F)cc1C(N)=O` (stereo not drawn) [Example 220, methyl N-[4-carbamoyl-1-[4-(cyanomethyl)-3-fluoro-1-[[4-(2-furyl)phenyl]methyl]-4-piperidyl]pyrazol-3-yl]carbamate]: in assay [1] (Homo sapiens, BEAS-2B), the IC50 was found to be 15 nM. Besides, the inhibition constant (Ki) in assay [2] is 0.44 nM; in assay [3], 0.27 nM.
Taken in the same sequence, the figures for `CCc1ccc(-c2ccc(CN3CCC(CC#N)(n4cc(C(N)=O)c(NC(=O)C5CC5C#N)n4)C(F)C3)cc2O)cc1` (stereo not drawn) [Example 221, 3-[(2-cyanocyclopropanecarbonyl)amino]-1-[4-(cyanomethyl)-1-[[4-(4-ethylphenyl)-3-hydroxy-phenyl]methyl]-3-fluoro-4-piperidyl]pyrazole-4-carboxamide] were 90 nM, 1.7 nM and 0.3 nM.
With `CCc1ccc(-c2ccc(CN3CCC(CC#N)(n4cc(C(N)=O)c(NC(=O)C5CC5C#N)n4)C(F)C3)cc2O)cc1` (stereo not drawn) [Example 222, 3-[(2-cyanocyclopropanecarbonyl)amino]-1-[4-(cyanomethyl)-1-[[4-(4-ethylphenyl)-3-hydroxy-phenyl]methyl]-3-fluoro-4-piperidyl]pyrazole-4-carboxamide], the IC50 in assay [1] turned out to be 52 nM. Besides, the figures for the inhibition constant (Ki) in assay [2] and in assay [3] were 0.43 nM and 0.18 nM, respectively.
As to `Cc1ccc(-c2ccc(CN3CCC(CC#N)(n4cc(C(N)=O)c(NC(=O)C5CC5)n4)C(F)C3)cc2)o1` (stereo not drawn) [Example 223, 1-[4-(cyanomethyl)-3-fluoro-1-[[4-(5-methyl-2-furyl)phenyl]methyl]-4-piperidyl]-3-(cyclopropanecarbonylamino) pyrazole-4-carboxamide], the half-inhibitory concentration (IC50) in assay [1] (Homo sapiens, BEAS-2B) was determined as 12 nM. Further, the inhibition constant (Ki) in assay [2] turned out to be 0.34 nM; in assay [3] it was 0.38 nM.
In the same order, the values of `COC(=O)Nc1nn(C2(CC#N)CCN(Cc3ccc(-c4ccco4)c(O)c3)CC2F)cc1C(N)=O` (stereo not drawn) [Example 224, methyl N-[4-carbamoyl-1-[4-(cyanomethyl)-3-fluoro-1-[[4-(2-furyl)-3-hydroxy-phenyl]methyl]-4-piperidyl]pyrazol-3-yl]carbamate] are 19 nM, 0.15 nM and 0.16 nM.
Taken in the same sequence, the figures for `CCOC(=O)Nc1nn(C2(CC#N)CCN(Cc3ccc(-n4nccn4)cc3)CC2F)cc1C(N)=O` (stereo not drawn) [Example 225, ethyl N-[4-carbamoyl-1-[4-(cyanomethyl)-3-fluoro-1-[[4-(triazol-2-yl)phenyl]methyl]-4-piperidyl]pyrazol-3-yl]carbamate] were 44 nM, 1.3 nM and 0.62 nM.
Taken in the same sequence, the figures for `COC(=O)Nc1nn(C2(CC#N)CCN(Cc3ccc(-c4ccco4)nc3F)CC2F)cc1C(N)=O` (stereo not drawn) [Example 226, methyl N-[4-carbamoyl-1-[4-(cyanomethyl)-3-fluoro-1-[[2-fluoro-6-(2-furyl)-3-pyridyl]methyl]-4-piperidyl]pyrazol-3-yl]carbamate] were 49 nM, 0.56 nM and 0.37 nM.
Turning to `N#CCC1(n2cc(C(N)=O)c(NC(=O)C3CC3C#N)n2)CCN(Cc2ccc(-c3ccccc3)nc2F)CC1F` (stereo not drawn) [Example 227, 3-[(2-cyanocyclopropanecarbonyl)amino]-1-[4-(cyanomethyl)-3-fluoro-1-[(2-fluoro-6-phenyl-3-pyridyl)methyl]-4-piperidyl]pyrazole-4-carboxamide], the concentration for half-maximal inhibition (IC50) in assay [1] (Homo sapiens, BEAS-2B) turned out to be 54 nM. Moreover, the values for the inhibition constant Ki in assay [2] and in assay [3] were 0.63 nM and 0.31 nM, respectively.
